Experimental data from patent publication US11766447B2, “3′3′-cyclic dinucleotide analogue comprising a cyclopentanyl modified nucleotide as sting modulator” (INSTITUTE OF ORGANIC CHEMISTRY AND BIOCHEMISTRY ASCR, V.V.I., priority 2019, dated 2023).
Where two headings read alike, the source gives them in different places. Blank lines part the entries; values can stand above or below the compound they belong to.

Experiments:
WT STING [1] = molecular target: T1, WT STING (Homo sapiens, UniProt Q86WV6, H232R); experiment: 293T WT STING standard reporter assay; type: cell-based; design: host or cells: 293T (ATCC CRL-3216), stably transfected, with 4xISRE firefly luciferase reporter; conditions: 293T wtSTING-FL cells, ISRE firefly luciferase; no digitonin; 7 hours with compounds; 8-point curve
Text: Two complementary oligonucleotides of the sequence […] […] […] […] […] The oligonucleotides were mixed in equal molar amounts, hybridized, and cleaved by restriction endonucleases HindIII (cat. #. R0104S, NEB, Ipswich, USA) and BglII (cat. #R0144S, NEB, Ipswich, USA). Ultimately, they were ligated into plasmid pGL4.27 (cat. #E6651, Promega, Madison, USA) linearized with the same enzymes. As result the sequence with four ISRE sites was placed upstream of the minimum promoter of firefly luciferase reporter gene.
After 5 minutes incubation at room temperature (RT), 250 μL of the mixture was added dropwise to the cells in one well. Cells were incubated 36 hours at 37° C. with 5% CO2, and then detached with 0.05% Trypsin and 0.22 g/L EDTA (both cat. #L0941, Biowest, Riverside, USA).
Transfected cells were seeded onto poly-D-lysine coated six well plates at density 50,000 cells per 1 cm^2 in DMEM medium with high glucose containing 10% heat inactivated FBS, 30 μg/mL blasticidin (cat. #ant-b1-05, InvivoGen, San Diego, USA), 0.06 mg/ml Penicillin G and 0.1 mg/ml Streptomycin Sulfate (both cat. #. L0018, Biowest, Riverside, USA). The medium was replenished every 3-4 days until visible colonies of cells resistant to blasticidin were formed.
Blasticidin resistant cells stably expressing WT STING were further transfected with […] plasmid following the same procedure as described above. […] Homogeneous culture of stably double transfected cells was prepared by limiting dilution of cells in 96 well plates and wells with cells were selected that originated from a single cell.
The medium was removed next day and three-fold serial dilutions of compounds in 100 μl medium were added to the cells. The plates with cells were incubated for 7 hours at 37° C. with 5% CO2. After 50 μl of the medium was removed, 30 μl of ONE-Glo™ Luciferase Assay System reagent (cat. #E6120, Promega, Madison, USA) was added to each well and luminescence was read on Synergy H1 (Biotek, Winooski, USA).
Target sequence in this assay (Q86WV6 whole entry H232R): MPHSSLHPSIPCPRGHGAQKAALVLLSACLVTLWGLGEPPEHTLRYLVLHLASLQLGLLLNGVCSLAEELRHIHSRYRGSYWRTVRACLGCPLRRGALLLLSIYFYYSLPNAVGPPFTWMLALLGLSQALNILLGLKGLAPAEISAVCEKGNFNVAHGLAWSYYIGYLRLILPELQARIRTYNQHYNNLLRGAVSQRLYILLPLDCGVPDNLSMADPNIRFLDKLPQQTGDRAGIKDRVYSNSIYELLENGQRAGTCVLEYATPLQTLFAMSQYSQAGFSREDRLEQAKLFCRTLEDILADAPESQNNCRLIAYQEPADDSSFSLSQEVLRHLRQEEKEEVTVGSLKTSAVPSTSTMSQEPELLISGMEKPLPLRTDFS

[2] = system: peripheral blood mononuclear cells (PBMC); experiment: Peripheral blood mononuclear cell (PBMC) assay; type: cell-based; conditions: 1 h with compounds, washed, 15 hour incubation, average of one to four donors
Description: Selected compounds were tested in an in vitro peripheral blood mononuclear cell (PBMC) assay. […] Serially diluted tested compounds were added to wells in 50 μl of cultivation medium and cell were incubated with compounds for 1 h at 37° C. with 5% CO2. Plates with cells were then spun 500 g for 5 minutes and medium was removed. Cells were washed twice with the cell culture medium by the use of centrifugation and gently resuspended in 100 μl medium without compounds. After 15 hour incubation at 37° C. with 5% CO2, the cell culture medium was collected and the levels of interferon-alpha (INF-α), interferon-gamma (INF-γ) and tumor necrosis factor-alpha (TNF-α) were determined with ProcartaPlex Assays (ThermoFisher, Waltham, USA) and MAGPIX System (Merck KGaA, Darmstadt, Germany). […] Values reported are an average of runs from one to four donors.

AQ STING (G230A-R293Q) = molecular target: T2, AQ STING (G230A-R293Q) (Homo sapiens, UniProt Q86WV6, G230A/H232R/R293Q); experiment: Differential scanning fluorimetry (DSF) with AQ STING; type: binding; conditions: thermal shift vs apoprotein; 150 μM CDN; truncated human AQ STING 0.1 mg/ml
T2 construct: 8xHis (N, cleaved yes); SUMO (N, cleaved yes); made in house; host or cells: E. coli Rosetta-gami B (DE3)
T2 sequence (Q86WV6 140-343 G230A/H232R/R293Q): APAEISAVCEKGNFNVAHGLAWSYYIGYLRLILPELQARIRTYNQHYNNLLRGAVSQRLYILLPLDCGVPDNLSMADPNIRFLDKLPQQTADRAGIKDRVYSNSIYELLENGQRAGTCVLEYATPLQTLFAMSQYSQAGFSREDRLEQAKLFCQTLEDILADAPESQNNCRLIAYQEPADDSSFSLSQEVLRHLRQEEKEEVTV
Summary of the method: (§1)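 […] STING proteins, alone or with CDNs, in triplicate, thermally denatured on a real-time PCR cycler. Denaturing temperatures taken from first-derivative curves; shift = mean Tm of STING–CDN complex minus mean Tm of apoprotein.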

WT STING [3] = molecular target: T1, WT STING; experiment: Digitonin assay using 293T wtSTING-FL reporter cells; type: cell-based; design: host or cells: 293T (ATCC CRL-3216), stably transfected, with 4xISRE firefly luciferase reporter; conditions: 293T wtSTING-FL cells, ISRE firefly luciferase; compounds in Digitonin buffer 30 minutes, then 5 hours; 8-point curve
Target sequence in this assay (Q86WV6 whole entry H232R): as the sequence (Q86WV6 whole entry H232R) above

WT STING [4] = molecular target: T1, WT STING; experiment: Differential scanning fluorimetry (DSF) with WT STING; type: binding; design: 8xHis (N, cleaved yes); SUMO (N, cleaved yes); made in house; host or cells: E. coli Rosetta-gami B (DE3); conditions: thermal shift vs apoprotein; 150 μM CDN; truncated human WT STING 0.1 mg/ml
Summary of the method: as §1
Target sequence in this assay (Q86WV6 140-343 H232R): as the sequence (Q86WV6 140-343 G230A/H232R/R293Q) above, with A91G, Q154R counted along it

[5] = PBMC, interferon-alpha level, read-out: PBMC EC50 (μM) IFN-α
[6] = PBMC, interferon-gamma level, read-out: PBMC EC50 (μM) IFN-γ
[7] = PBMC, tumor necrosis factor-alpha level, read-out: PBMC EC50 (μM) TNF-α
[8] = interferon-alpha level, read-out: PBMC EC50 (μM) IFN-α

- EC50 (WT STING [1]): 60 nM
Compound: CC(C)(C)C(=O)OCOP1(=O)OC[C@H]2C[C@@H](n3cnc4c(N)ncnc43)C(F)[C@H]2OP(=O)(OCOC(=O)C(C)(C)C)OC[C@H]2O[C@@H](n3cnc4c(N)ncnc43)[C@@H](F)C2O1 (single isomer, unassigned) [Compound 136b]

- EC50 (WT STING [1]): 50 nM
Compound: CC(C)(C)C(=O)OCOP1(=O)OC[C@H]2C[C@@H](n3cnc4c(N)ncnc43)C(F)[C@H]2OP(=O)(OCOC(=O)C(C)(C)C)OC[C@H]2O[C@@H](n3cnc4c(N)ncnc43)[C@@H](F)C2O1 (single isomer, unassigned) [Compound 136c]

- EC50 (WT STING [1]): 10 nM
Compound: CC(C)(C)C(=O)OCOP1(=O)OC[C@H]2C[C@@H](n3cnc4c(N)ncnc43)C(F)[C@H]2OP(=O)(OCOC(=O)C(C)(C)C)OC[C@H]2O[C@@H](n3cnc4c(N)ncnc43)[C@@H](F)C2O1 (single isomer, unassigned) [Compound 136d]
- EC50 [2, 5]: 0.9 µM
- EC50 [2, 6]: 2.4 µM
- EC50 [2, 7]: 0.8 µM

- EC50 (WT STING [1]): 200 nM
Compound: CC(C)(C)C(=O)OCOP1(=O)OC[C@H]2O[C@@H](n3cnc4c(N)ncnc43)C(F)C2OP(=O)(OCOC(=O)C(C)(C)C)OC[C@H]2C[C@@H](n3cnc4c(N)ncnc43)CC2O1 (single isomer, unassigned) [Compound 137a]

- EC50 (WT STING [1]): 90 nM
Compound: CC(C)(C)C(=O)OCOP1(=O)OC[C@H]2O[C@@H](n3cnc4c(N)ncnc43)C(F)C2OP(=O)(OCOC(=O)C(C)(C)C)OC[C@H]2C[C@@H](n3cnc4c(N)ncnc43)CC2O1 (single isomer, unassigned) [Compound 137b]

- EC50 (WT STING [1]): 70 nM
Compound: CC(C)(C)C(=O)OCOP1(=O)OC[C@H]2C[C@@H](n3cnc4c(N)ncnc43)C(F)C2OP(=O)(OCOC(=O)C(C)(C)C)OC[C@H]2C[C@@H](n3cnc4c(N)ncnc43)C(F)C2O1 (single isomer, unassigned) [Compound 138a]
- EC50 [2, 6]: 1.5 µM
- EC50 [2, 7]: 1.9 µM
- EC50 [2, 8]: 3.2 µM

- EC50 (WT STING [1]): 20 nM
Compound: CC(C)(C)C(=O)OCOP1(=O)OC[C@H]2C[C@@H](n3cnc4c(N)ncnc43)C(F)C2OP(=O)(OCOC(=O)C(C)(C)C)OC[C@H]2C[C@@H](n3cnc4c(N)ncnc43)C(F)C2O1 (single isomer, unassigned) [Compound 138b]
- EC50 [2, 8]: 1 µM
- EC50 ([2]; interferon-gamma level, read-out: PBMC EC50 (μM) IFN-γ): 2.6 µM
- EC50 ([2]; tumor necrosis factor-alpha level, read-out: PBMC EC50 (μM) TNF-α): 1.3 µM

- EC50 (WT STING [1]): 100 nM
Compound: CC(C)OC(=O)OCOP1(=O)OC[C@H]2O[C@@H](n3cnc4c(N)ncnc43)[C@H](F)[C@@H]2OP(=O)(OCOC(=O)OC(C)C)OC[C@H]2C[C@@H](n3cnc4c(N)ncnc43)[C@H](F)[C@@H]2O1 (single isomer, unassigned) [Compound 143a]

- EC50 (WT STING [1]): 20 nM
Compound: CCC(C)(C)C(=O)OCOP1(=O)OC[C@H]2O[C@@H](n3cnc4c(N)ncnc43)[C@H](F)[C@@H]2OP(=O)(OCOC(=O)C(C)(C)CC)OC[C@H]2C[C@@H](n3cnc4c(N)ncnc43)[C@H](F)[C@@H]2O1 (single isomer, unassigned) [Compound 144a]

- EC50 (WT STING [1]): 1 nM
Compound: CCC(C)(C)C(=O)OCOP1(=O)OC[C@H]2O[C@@H](n3cnc4c(N)ncnc43)[C@H](F)[C@@H]2OP(=O)(OCOC(=O)C(C)(C)CC)OC[C@H]2C[C@@H](n3cnc4c(N)ncnc43)[C@H](F)[C@@H]2O1 (single isomer, unassigned) [Compound 144c]
- EC50 [2, 5]: 0.004 µM
- EC50 [2, 6]: 0.003 µM
- EC50 [2, 7]: 0.002 µM

- EC50 (WT STING [1]): 120 nM
Compound: CC1(C(=O)OCOP2(=O)OC[C@H]3O[C@@H](n4cnc5c(N)ncnc54)[C@H](F)[C@@H]3OP(=O)(OCOC(=O)C3(C)CCCCC3)OC[C@H]3C[C@@H](n4cnc5c(N)ncnc54)[C@H](F)[C@@H]3O2)CCCCC1 (single isomer, unassigned) [Compound 145a]

- EC50 (WT STING [1]): 1 nM
Compound: CC1(C(=O)OCOP2(=O)OC[C@H]3O[C@@H](n4cnc5c(N)ncnc54)[C@H](F)[C@@H]3OP(=O)(OCOC(=O)C3(C)CCCCC3)OC[C@H]3C[C@@H](n4cnc5c(N)ncnc54)[C@H](F)[C@@H]3O2)CCCCC1 (single isomer, unassigned) [Compound 145b]
- EC50 [2, 5]: 0.007 µM
- EC50 [2, 6]: 0.002 µM
- EC50 [2, 7]: 0.006 µM

- EC50 (WT STING [1]): 0.1 nM
Compound: CCCCCCCC(=O)OCOP1(=O)OC[C@H]2O[C@@H](n3cnc4c(N)ncnc43)[C@H](F)[C@@H]2OP(=O)(OCOC(=O)CCCCCCC)OC[C@H]2C[C@@H](n3cnc4c(N)ncnc43)[C@H](F)[C@@H]2O1 (single isomer, unassigned) [Compound 146a]
- EC50 [2, 5]: 0.04 µM

- ΔTm at 150 µM (AQ STING (G230A-R293Q)): 21.4 °C
- EC50 (WT STING [3]): 10 nM
- ΔTm at 150 µM (WT STING [4]): 13.4 °C
Compound: Nc1nc2c(ncn2[C@@H]2O[C@@H]3COP(=O)(O)O[C@@H]4[C@@H](COP(=O)(O)O[C@H]3[C@H]2F)C[C@@H](n2cnc3c(N)ncnc32)[C@@H]4F)c(=O)[nH]1 [Compound 131, (1R,6R,8R,9R,10R,15R,17R,18S)-8-(2-amino-6-oxo-6,9-dihydro-1H-purin-9-yl)-17-(6-amino-9H-purin-9-yl)-9,18-difluoro-3,12-dihydroxy-2,4,7,11,13-pentaoxa-3λ^5,12λ^5-diphosphatricyclo[13.3.0.0^6,10]octadecane-3,12-dione]

- ΔTm at 150 µM (AQ STING (G230A-R293Q)): 4.4 °C
- EC50 (WT STING [3]): 1200 nM
- ΔTm at 150 µM (WT STING [4]): 0.6 °C
Compound: Nc1ncnc2c1ncn2[C@@H]1C[C@@H]2COP(=O)(O)OC3C(O)[C@H](n4cnc5c(N)ncnc54)C[C@@H]3COP(=O)(O)OC2C1O (stereo partly drawn) [Compound 133, (2R,3S,3aR,7aR,9R,10S,10aR,14aR)-2,9-bis(6-amino-9H-purin-9-yl)-3,5,10,12-tetrahydroxydodecahydrodicyclopenta[d,j][1,3,7,9]tetraoxa[2,8]-diphosphacyclododecine 5,12-dioxide]

- ΔTm at 150 µM (AQ STING (G230A-R293Q)): 13.2 °C
- EC50 (WT STING [3]): 20 nM
- ΔTm at 150 µM (WT STING [4]): 6.4 °C
Compound: Nc1ncnc2c1ncn2[C@@H]1C[C@@H]2COP(=O)(O)O[C@H]3[C@@H](F)[C@H](n4cnc5c(N)ncnc54)O[C@@H]3COP(=O)(O)O[C@H]2[C@H]1O [Compound 134, (1R,6R,8R,9R,10R,15R,17R,18S)-8,17-bis(6-amino-9H-purin-9-yl)-9-fluoro-3,12,18-trihydroxy-2,4,7,11,13-pentaoxa-3λ^5,12λ^5-diphosphatricyclo[13.3.0.0^6,10]octadecane-3,12-dione]

Compound: (((2R,3R,3aR,7aR,9R,10S,10aR,14aR)-2,9-bis(6-amino-9H-purin-9-yl)-3,10-difluoro-12-hydroxy-5,12-dioxidodecahydro-2H-cyclopenta[d]furo[3,2-j][1,3,7,9]tetraoxa[2,8]diphosphacyclododecin-5-yl)oxy)methyl pivalate [Compound 135a]
- EC50 (WT STING [1]): 300 nM
